Assay results: patent publication US20100056508A1, “AMINE DERIVATIVES AND THEIR USE IN BETA-2-ADRENORECEPTOR MEDIATED DISEASES” (ASTRAZENECA AB, priority 2006, published 2010)
Where a name gives a salt, the structure may show the parent alone.

Experiments:
[1] = target: T1, recombinant human Dopamine Subtype D2s receptors (Homo sapiens, UniProt P14416); assay: Dopamine D2 selectivity assay, [3H]-spiperone binding to membranes; details: inhibition of [3H]-spiperone binding, read-out: D2 bind pIC50 (converted)
T1 construct: purchased Perkin Elmer
Method in brief: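 Human D2s receptor membranes incubated 2 h at room temperature with 0.16 nM [3H]-spiperone and test compound in HEPES buffer pH 7.4 (120 mM NaCl, 0.1% gelatin). Non-specific binding defined with 10 μM haloperidol; filter-bound radioactivity counted, pIC50 from four-parameter logistic fit.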

[2] = target: T2, recombinant human α1D receptor (Homo sapiens, UniProt P25100); assay: Adrenergic α1D selectivity assay, [3H]-prazosin binding to membranes; details: inhibition of [3H]-prazosin binding, HEK cell membranes, read-out: α1 bind pIC50 (converted)
T2 construct: expressed in transfected cells; host or cells: human embryonic kidney 293 cells (HEK93 [sic]), membranes
T2 sequence (P25100 1-572): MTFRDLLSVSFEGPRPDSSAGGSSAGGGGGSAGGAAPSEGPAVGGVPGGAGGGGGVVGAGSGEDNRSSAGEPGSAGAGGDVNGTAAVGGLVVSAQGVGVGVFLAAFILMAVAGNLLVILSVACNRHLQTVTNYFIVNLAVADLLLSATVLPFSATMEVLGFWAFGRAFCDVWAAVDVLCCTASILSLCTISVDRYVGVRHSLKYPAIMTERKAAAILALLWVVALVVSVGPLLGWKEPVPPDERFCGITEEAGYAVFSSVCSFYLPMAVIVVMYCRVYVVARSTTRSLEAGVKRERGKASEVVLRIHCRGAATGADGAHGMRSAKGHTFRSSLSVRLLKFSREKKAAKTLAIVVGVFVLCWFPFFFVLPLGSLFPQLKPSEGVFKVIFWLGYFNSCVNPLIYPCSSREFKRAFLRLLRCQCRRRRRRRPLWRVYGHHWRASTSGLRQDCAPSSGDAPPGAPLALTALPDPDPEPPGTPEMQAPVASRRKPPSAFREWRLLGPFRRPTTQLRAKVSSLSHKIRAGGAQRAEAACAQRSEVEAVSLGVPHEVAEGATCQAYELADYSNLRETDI
Method in brief: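 Competition binding on HEK293 membranes with recombinant human α1D receptor, 0.3 nM [3H]-prazosin, 50 mM HEPES/1 mM EDTA pH 7.4, 2 h at room temperature; filtration and scintillation counting. Non-specific binding defined with 10 μM BMY7378. pIC50 from four-parameter logistic fit of specific-binding inhibition.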

T1 sequence (P14416 1-414 isoform P14416-2): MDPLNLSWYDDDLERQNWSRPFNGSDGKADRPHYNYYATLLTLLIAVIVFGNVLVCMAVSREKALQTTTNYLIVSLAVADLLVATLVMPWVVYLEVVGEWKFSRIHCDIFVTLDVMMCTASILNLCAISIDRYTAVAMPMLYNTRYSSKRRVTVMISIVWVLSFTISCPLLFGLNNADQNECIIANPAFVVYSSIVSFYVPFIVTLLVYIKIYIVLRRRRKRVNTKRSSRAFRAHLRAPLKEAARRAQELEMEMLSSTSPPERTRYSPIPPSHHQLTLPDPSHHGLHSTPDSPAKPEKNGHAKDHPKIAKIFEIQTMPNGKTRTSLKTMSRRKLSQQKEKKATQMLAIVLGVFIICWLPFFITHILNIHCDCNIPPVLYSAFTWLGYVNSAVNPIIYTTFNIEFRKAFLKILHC

Row | Structure (SMILES) | IC50 [1] | IC50 [2]
1 | CCCC[C@@H](C)N(CCNCCc1ccc(O)c2c1OCC(=O)N2)C(=O)CCNCCc1ccc(F)c(C)c1 [Example 47, (R)-3-(4-Fluoro-3-methylphenethylamino)-N-(hexan-2-yl)-N-(2-(2-(5-hydroxy-3-oxo-3,4-dihydro-2H-benzo[b][1,4]oxazin-8-yl)ethylamino)ethyl)propanamide bis(trifluoroacetate)] | 50.1 nM | 79.4 nM
2 | CCCC[C@@H](C)N(CCNCCc1ccc(O)c2c1OCC(=O)N2)C(=O)CCNCCc1ccc(F)c(Cl)c1 [Example 48, (R)-3-(3-Chloro-4-fluorophenethylamino)-N-(hexan-2-yl)-N-(2-(2-(5-hydroxy-3-oxo-3,4-dihydro-2H-benzo[b][1,4]oxazin-8-yl)ethylamino)ethyl)propanamide bis(trifluoroacetate)] | 79.4 nM | 126 nM
3 | CCCC[C@@H](C)N(CCNCCc1ccc(O)c2c1OCC(=O)N2)C(=O)CCNCCc1ccc(Cl)s1 [Example 49, (R)-3-(2-(5-Chlorothiophen-2-yl)ethylamino)-N-(hexan-2-yl)-N-(2-(2-(5-hydroxy-3-oxo-3,4-dihydro-2H-benzo[b][1,4]oxazin-8-yl)ethylamino)ethyl)propanamide bis(trifluoroacetate)] | 63.1 nM | 316 nM
4 | CCCC[C@@H](C)N(CCNCCc1ccc(O)c2c1OCC(=O)N2)C(=O)CCNCCc1cc(F)cc(Cl)c1 [Example 50, (R)-3-(3-Chloro-5-fluorophenethylamino)-N-(hexan-2-yl)-N-(2-(2-(5-hydroxy-3-oxo-3,4-dihydro-2H-benzo[b][1,4]oxazin-8-yl)ethylamino)ethyl)propanamide bis(trifluoroacetate)] | 31.6 nM | 200 nM
5 | CCCC[C@@H](C)N(CCNCCc1ccc(O)c2c1OCC(=O)N2)C(=O)CCNCCc1cc(F)cc(F)c1 [Example 51, (R)-3-(3,5-Difluorophenethylamino)-N-(hexan-2-yl)-N-(2-(2-(5-hydroxy-3-oxo-3,4-dihydro-2H-benzo[b][1,4]oxazin-8-yl)ethylamino)ethyl)propanamide bis(trifluoroacetate)] | 39.8 nM | 316 nM
6 | CCCC[C@@H](C)N(CCNCCc1ccc(O)c2c1OCC(=O)N2)C(=O)CCNCCc1ccc(F)c(F)c1 [Example 52, (R)-3-(3,4-Difluorophenethylamino)-N-(hexan-2-yl)-N-(2-(2-(5-hydroxy-3-oxo-3,4-dihydro-2H-benzo[b][1,4]oxazin-8-yl)ethylamino)ethyl)propanamide bis(trifluoroacetate)] | 63.1 nM | 200 nM
7 | CCCC[C@@H](C)N(CCNCCc1ccc(O)c2c1OCC(=O)N2)C(=O)CCNCCc1cccc(F)c1F [Example 53, (R)-3-(2,3-Difluorophenethylamino)-N-(hexan-2-yl)-N-(2-(2-(5-hydroxy-3-oxo-3,4-dihydro-2H-benzo[b][1,4]oxazin-8-yl)ethylamino)ethyl)propanamide bis(trifluoroacetate)] | 39.8 nM | 200 nM
8 | CCCC[C@@H](C)N(CCNCCc1ccc(O)c2c1OCC(=O)N2)C(=O)CCNCCc1cc(F)ccc1F [Example 54, (R)-3-(2,5-Difluorophenethylamino)-N-(hexan-2-yl)-N-(2-(2-(5-hydroxy-3-oxo-3,4-dihydro-2H-benzo[b][1,4]oxazin-8-yl)ethylamino)ethyl)propanamide bis(trifluoroacetate)] | 31.6 nM | 79.4 nM
9 | CCCC[C@@H](C)N(CCNCCc1ccc(O)c2c1OCC(=O)N2)C(=O)CCNCCc1ccc(Cl)c(Cl)c1 [Example 55, (R)-3-(3,4-Dichlorophenethylamino)-N-(hexan-2-yl)-N-(2-(2-(5-hydroxy-3-oxo-3,4-dihydro-2H-benzo[b][1,4]oxazin-8-yl)ethylamino)ethyl)propanamide bis(trifluoroacetate)] | 50.1 nM | 251 nM
10 | CCCC[C@@H](C)N(CCNCCc1ccc(O)c2c1OCC(=O)N2)C(=O)CCNCCc1cc(C)ccc1F [Example 56, (R)-3-(2-Fluoro-5-methylphenethylamino)-N-(hexan-2-yl)-N-(2-(2-(5-hydroxy-3-oxo-3,4-dihydro-2H-benzo[b][1,4]oxazin-8-yl)ethylamino)ethyl)propanamide bis(trifluoroacetate)] | 31.6 nM | 31.6 nM
11 | CCCC[C@@H](C)N(CCNCCc1ccc(O)c2c1OCC(=O)N2)C(=O)CCNCCc1cc(F)ccc1C [Example 57, (R)-3-(5-Fluoro-2-methylphenethylamino)-N-(hexan-2-yl)-N-(2-(2-(5-hydroxy-3-oxo-3,4-dihydro-2H-benzo[b][1,4]oxazin-8-yl)ethylamino)ethyl)propanamide bis(trifluoroacetate)] | 15.8 nM | 100 nM
12 | CC[C@@H](C)N(CCNCCc1ccc(O)c2c1OCC(=O)N2)C(=O)CCNCCc1ccc(Cl)c(Cl)c1 [Example 58, (R)—N-sec-Butyl-3-(3,4-dichlorophenethylamino)-N-(2-(2-(5-hydroxy-3-oxo-3,4-dihydro-2H-benzo[b][1,4]oxazin-8-yl)ethylamino)ethyl)propanamide dihydrochloride] | 39.8 nM | 100 nM
13 | CC(C)[C@@H](C)N(CCNCCc1ccc(O)c2c1OCC(=O)N2)C(=O)CCNCCc1ccc(Cl)c(Cl)c1 [Example 59, (R)-3-(3,4-Dichlorophenethylamino)-N-(2-(2-(5-hydroxy-3-oxo-3,4-dihydro-2H-benzo[b][1,4]oxazin-8-yl)ethylamino)ethyl)-N-(3-methylbutan-2-yl)propanamide dihydrochloride] | 100 nM | 200 nM
14 | C[C@H](C1CCCCC1)N(CCNCCc1ccc(O)c2c1OCC(=O)N2)C(=O)CCNCCc1ccccc1 [Example 61, (R)—N-(1-Cyclohexylethyl)-N-(2-(2-(5-hydroxy-3-oxo-3,4-dihydro-2H-benzo[b][1,4]oxazin-8-yl)ethylamino)ethyl)-3-(phenethylamino)propanamide bis(trifluoroacetate)] | 100 nM | 20 nM
15 | Cc1cc(CCNCCC(=O)N(CCNCCc2ccc(O)c3c2OCC(=O)N3)C2CCCCCC2)ccc1F [Example 62, N-Cycloheptyl-3-(4-fluoro-3-methylphenethylamino)-N-(2-(2-(5-hydroxy-3-oxo-3,4-dihydro-2H-benzo[b][1,4]oxazin-8-yl)ethylamino)ethyl)propanamide bis(trifluoroacetate)] | 63.1 nM | 39.8 nM
16 | O=C1COc2c(CCNCCN(C(=O)CCNCCc3ccc(Cl)cc3)C3CCCCCC3)ccc(O)c2N1 [Example 63, 3-(4-Chlorophenethylamino)-N-cycloheptyl-N-(2-(2-(5-hydroxy-3-oxo-3,4-dihydro-2H-benzo[b][1,4]oxazin-8-yl)ethylamino)ethyl)propanamide bis(trifluoroacetate)] | 39.8 nM | 100 nM
17 | O=C1COc2c(CCNCCN(C(=O)CCNCCc3cc(F)ccc3F)C3CCCCCC3)ccc(O)c2N1 [Example 64, N-Cycloheptyl-3-(2,5-difluorophenethylamino)-N-(2-(2-(5-hydroxy-3-oxo-3,4-dihydro-2H-benzo[b][1,4]oxazin-8-yl)ethylamino)ethyl)propanamide bis(trifluoroacetate)] | 63.1 nM | 63.1 nM
18 | O=C1COc2c(CCNCCN(C(=O)CCNCCc3cc(F)cc(F)c3)C3CCCCCC3)ccc(O)c2N1 [Example 65, N-Cycloheptyl-3-(3,5-difluorophenethylamino)-N-(2-(2-(5-hydroxy-3-oxo-3,4-dihydro-2H-benzo[b][1,4]oxazin-8-yl)ethylamino)ethyl)propanamide bis(trifluoroacetate)] | 126 nM | 398 nM
19 | O=C1COc2c(CCNCCN(C(=O)CCNCCc3cc(F)cc(Cl)c3)C3CCCCCC3)ccc(O)c2N1 [Example 66, 3-(3-Chloro-5-fluorophenethylamino)-N-cycloheptyl-N-(2-(2-(5-hydroxy-3-oxo-3,4-dihydro-2H-benzo[b][1,4]oxazin-8-yl)ethylamino)ethyl)propanamide bis(trifluoroacetate)] | 39.8 nM | 398 nM
20 | O=C1COc2c(CCNCCN(C(=O)CCNCCc3ccc(F)c(F)c3)C3CCCCCC3)ccc(O)c2N1 [Example 67, N-Cycloheptyl-3-(3,4-difluorophenethylamino)-N-(2-(2-(5-hydroxy-3-oxo-3,4-dihydro-2H-benzo[b][1,4]oxazin-8-yl)ethylamino)ethyl)propanamide bis(trifluoroacetate)] | 100 nM | 200 nM
